For 1 substance, Km results are on record in paper PMC9570233, “Improving Both the Thermostability and Catalytic Efficiency of Phospholipase D from Moritella sp. JT01 through Disulfide Bond Engineering Strategy” (International Journal of Molecular Sciences, 2022).

Assay [1] concerns the target T1, MsPLD (Moritella sp. JT01, UniProt A0A137SLD1).
T1 construct: gene AKG98_3441; tag removal not mentioned
T1 sequence (A0A137SLD1 29-578): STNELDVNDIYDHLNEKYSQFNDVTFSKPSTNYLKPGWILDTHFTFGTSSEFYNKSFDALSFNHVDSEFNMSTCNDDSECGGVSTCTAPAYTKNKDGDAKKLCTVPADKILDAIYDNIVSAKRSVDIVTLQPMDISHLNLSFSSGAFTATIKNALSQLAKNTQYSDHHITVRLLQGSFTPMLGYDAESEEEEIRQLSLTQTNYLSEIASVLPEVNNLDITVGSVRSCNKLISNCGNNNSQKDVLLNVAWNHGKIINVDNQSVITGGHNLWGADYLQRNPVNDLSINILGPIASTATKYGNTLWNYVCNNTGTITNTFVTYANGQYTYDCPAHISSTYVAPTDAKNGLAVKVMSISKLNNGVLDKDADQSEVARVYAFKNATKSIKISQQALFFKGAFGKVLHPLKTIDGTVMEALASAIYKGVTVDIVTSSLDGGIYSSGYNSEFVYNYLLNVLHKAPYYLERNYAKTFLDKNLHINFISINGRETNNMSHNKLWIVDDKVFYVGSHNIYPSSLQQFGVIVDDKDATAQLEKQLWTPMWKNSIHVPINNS
Description: coupled choline oxidase/peroxidase colorimetric assay ([…] nm), non-linear regression. The format is biochemical. The note with it: 35 °C, pH 8.0, PC 1.0-3.0 mM, 5 min; hydrolysis; free enzyme.

For assay [2], the target named is T2, MsPLD (Moritella sp. JT01, UniProt A0A137SLD1, S169C/T227C/D246C/A349C).
T2 construct: gene AKG98_3441; tag removal not mentioned
T2 sequence (A0A137SLD1 29-578 S169C/T227C/D246C/A349C): T1 sequence (A0A137SLD1 29-578) with S141C, T199C, D218C, A321C
Described as above. The format is biochemical. The note with it: 35 °C, pH 8.0, PC 1.0-3.0 mM, 5 min; hydrolysis; free enzyme.

Residue numbers refer to the chain shown, from its start.

For L-α-phosphatidylcholine, the results for the Km in assay [1] and in assay [2] were 3.44 ± 0.81 mM and 2.71 ± 0.89 mM, respectively.
